How the values were obtained:
[1] = target: T1, Serine/threonine-protein kinase TNNI3K (Homo sapiens, UniProt Q59H18); test: Inhibition of TNNI3K (unknown origin)
T1 sequence (Q59H18 whole entry): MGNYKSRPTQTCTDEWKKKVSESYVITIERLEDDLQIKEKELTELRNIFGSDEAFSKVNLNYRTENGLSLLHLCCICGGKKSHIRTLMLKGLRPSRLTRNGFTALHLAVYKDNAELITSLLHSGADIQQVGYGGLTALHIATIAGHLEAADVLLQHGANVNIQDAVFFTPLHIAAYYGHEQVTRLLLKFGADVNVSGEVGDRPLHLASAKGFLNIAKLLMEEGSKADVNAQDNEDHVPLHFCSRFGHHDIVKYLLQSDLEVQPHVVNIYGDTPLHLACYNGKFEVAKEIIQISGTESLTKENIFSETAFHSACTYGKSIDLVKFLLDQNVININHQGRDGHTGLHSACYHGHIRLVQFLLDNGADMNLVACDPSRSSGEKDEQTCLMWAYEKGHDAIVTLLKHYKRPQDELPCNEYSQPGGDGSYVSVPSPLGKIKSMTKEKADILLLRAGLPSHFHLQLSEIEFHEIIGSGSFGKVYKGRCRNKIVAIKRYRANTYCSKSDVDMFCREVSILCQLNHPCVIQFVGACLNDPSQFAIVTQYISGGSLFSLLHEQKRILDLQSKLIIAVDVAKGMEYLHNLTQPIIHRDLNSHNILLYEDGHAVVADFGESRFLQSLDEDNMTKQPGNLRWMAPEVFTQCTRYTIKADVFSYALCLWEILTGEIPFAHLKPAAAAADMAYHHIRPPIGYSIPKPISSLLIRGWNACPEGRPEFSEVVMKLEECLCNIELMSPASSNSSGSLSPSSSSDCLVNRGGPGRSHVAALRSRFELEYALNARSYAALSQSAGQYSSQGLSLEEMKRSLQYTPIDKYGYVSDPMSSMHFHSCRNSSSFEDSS

[2] = target: Vascular endothelial growth factor receptor 2 (Homo sapiens, UniProt P35968); test: Inhibition of GST-6His tagged VEGFR2 (unknown origin) using biotin-aminohexyl-EEEEYFELVAKKKK-NH2 peptide substrate incubated for 90 mins by HTRF assay
[3] = target: Mitogen-activated protein kinase 14 (Homo sapiens, UniProt Q16539); test: Inhibition of p38alpha (unknown origin)
[4] = target: Serine/threonine-protein kinase B-raf (Homo sapiens, UniProt P15056); test: Inhibition of B-Raf (unknown origin)
Homo sapiens [5] = species on record: Homo sapiens; test: Selectivity index, ratio of IC50 for inhibition of VEGFR2 (unknown origin) to IC50 for inhibition of TNNI3K (unknown origin)
Homo sapiens [6] = species on record: Homo sapiens; test: Selectivity index, ratio of IC50 for inhibition of p38alpha (unknown origin) to IC50 for inhibition of TNNI3K (unknown origin)

Chain of Vascular endothelial growth factor receptor 2 (P35968 whole entry): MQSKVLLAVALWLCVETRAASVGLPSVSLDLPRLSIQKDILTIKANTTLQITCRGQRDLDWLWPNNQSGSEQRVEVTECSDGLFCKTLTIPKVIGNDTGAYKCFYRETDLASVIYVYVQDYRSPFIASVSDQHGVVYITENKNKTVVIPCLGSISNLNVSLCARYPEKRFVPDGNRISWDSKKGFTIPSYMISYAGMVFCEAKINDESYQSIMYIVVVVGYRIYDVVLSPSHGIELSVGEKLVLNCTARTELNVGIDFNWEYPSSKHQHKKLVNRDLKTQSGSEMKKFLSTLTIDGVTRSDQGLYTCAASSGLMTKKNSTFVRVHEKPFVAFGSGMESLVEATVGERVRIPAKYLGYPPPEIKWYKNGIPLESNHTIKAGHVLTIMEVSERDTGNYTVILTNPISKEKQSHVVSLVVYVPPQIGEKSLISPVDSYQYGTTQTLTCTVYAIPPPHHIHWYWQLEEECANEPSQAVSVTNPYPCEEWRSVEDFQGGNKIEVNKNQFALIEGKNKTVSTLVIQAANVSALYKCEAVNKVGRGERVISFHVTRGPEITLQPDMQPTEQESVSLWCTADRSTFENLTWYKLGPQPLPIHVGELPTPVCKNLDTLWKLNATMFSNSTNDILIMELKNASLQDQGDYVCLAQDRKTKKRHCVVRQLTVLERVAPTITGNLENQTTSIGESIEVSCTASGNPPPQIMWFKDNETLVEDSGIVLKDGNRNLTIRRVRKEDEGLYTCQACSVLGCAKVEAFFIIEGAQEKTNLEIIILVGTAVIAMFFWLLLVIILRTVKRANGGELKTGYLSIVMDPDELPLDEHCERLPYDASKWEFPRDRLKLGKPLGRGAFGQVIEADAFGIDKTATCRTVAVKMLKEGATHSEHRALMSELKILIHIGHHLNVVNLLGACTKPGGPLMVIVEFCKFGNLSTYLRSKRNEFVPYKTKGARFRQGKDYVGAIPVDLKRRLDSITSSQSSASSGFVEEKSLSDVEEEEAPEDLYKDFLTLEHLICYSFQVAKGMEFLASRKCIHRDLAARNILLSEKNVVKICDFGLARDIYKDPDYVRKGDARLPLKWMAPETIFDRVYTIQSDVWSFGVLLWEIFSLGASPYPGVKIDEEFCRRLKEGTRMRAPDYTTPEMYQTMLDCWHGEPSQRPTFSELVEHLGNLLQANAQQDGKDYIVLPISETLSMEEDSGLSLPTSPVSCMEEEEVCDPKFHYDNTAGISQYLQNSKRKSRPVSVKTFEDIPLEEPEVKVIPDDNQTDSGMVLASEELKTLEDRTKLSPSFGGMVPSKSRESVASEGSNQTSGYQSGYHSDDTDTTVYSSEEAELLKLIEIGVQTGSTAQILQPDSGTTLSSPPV
Chain of Serine/threonine-protein kinase B-raf (P15056 whole entry): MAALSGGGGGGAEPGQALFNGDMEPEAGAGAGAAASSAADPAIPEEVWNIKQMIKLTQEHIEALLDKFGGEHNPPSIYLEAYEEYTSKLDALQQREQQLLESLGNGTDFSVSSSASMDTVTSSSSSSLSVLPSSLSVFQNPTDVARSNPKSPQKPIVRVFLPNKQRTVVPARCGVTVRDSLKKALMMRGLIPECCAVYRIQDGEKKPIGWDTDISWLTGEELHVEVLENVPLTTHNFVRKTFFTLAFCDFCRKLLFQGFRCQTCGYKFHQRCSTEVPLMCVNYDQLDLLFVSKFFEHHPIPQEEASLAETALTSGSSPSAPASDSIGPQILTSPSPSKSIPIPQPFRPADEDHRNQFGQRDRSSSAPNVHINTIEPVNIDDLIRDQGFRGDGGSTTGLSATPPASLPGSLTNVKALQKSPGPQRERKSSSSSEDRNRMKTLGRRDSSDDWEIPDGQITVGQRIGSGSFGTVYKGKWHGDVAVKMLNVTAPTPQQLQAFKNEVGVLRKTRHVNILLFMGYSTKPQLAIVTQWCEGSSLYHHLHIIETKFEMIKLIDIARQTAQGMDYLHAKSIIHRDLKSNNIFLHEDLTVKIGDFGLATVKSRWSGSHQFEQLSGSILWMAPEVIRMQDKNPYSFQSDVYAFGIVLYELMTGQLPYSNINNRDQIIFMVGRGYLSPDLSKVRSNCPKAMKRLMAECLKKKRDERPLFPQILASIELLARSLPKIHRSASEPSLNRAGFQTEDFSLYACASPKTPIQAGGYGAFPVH
Chain of Mitogen-activated protein kinase 14 (Q16539 whole entry): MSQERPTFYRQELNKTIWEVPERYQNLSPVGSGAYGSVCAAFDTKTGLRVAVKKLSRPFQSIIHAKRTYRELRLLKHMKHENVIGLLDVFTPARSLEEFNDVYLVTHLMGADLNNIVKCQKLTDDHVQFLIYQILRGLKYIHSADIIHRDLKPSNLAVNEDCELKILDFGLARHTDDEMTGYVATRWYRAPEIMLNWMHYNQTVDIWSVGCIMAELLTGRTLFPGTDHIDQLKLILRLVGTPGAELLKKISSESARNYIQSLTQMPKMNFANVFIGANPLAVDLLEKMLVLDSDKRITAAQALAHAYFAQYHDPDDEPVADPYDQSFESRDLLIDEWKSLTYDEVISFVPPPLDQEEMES

O=C(Nc1ccc(Oc2cc(Nc3cccc(CN4CCCC4)c3)ncn2)cc1)Nc1cccc(C(F)(F)F)c1
IC50 [1]: 10 nM
IC50 [2]: 3.2 nM
IC50 [3]: 50 nM
IC50 [4]: 200 nM
Ratio IC50 (Homo sapiens [5]): 0.32
Ratio IC50 (Homo sapiens [6]): 5

CNc1cc(Oc2c(C)cc(NC(=O)Nc3cccc(C(F)(F)F)c3)cc2Cl)ncn1
IC50 [1]: 79 nM
IC50 [2]: 400 nM
IC50 [3]: 2000 nM
IC50 [4]: > 2000 nM
Ratio IC50 (Homo sapiens [5]): 5.1
Ratio IC50 (Homo sapiens [6]): 25

Cc1cc(Oc2ccc(NC(=O)Nc3cccc(C(F)(F)F)c3)cc2)c2ccccc2n1
IC50 [1]: > 50000 nM
IC50 [2]: > 10000 nM
IC50 [3]: 1000 nM
IC50 [4]: 1260 nM
Ratio IC50 (Homo sapiens [6]): < 0.02

CCNc1cc(Oc2ccc(NC(=O)Nc3cccc(C(F)(F)F)c3)cc2)ncn1
IC50 [1]: 25 nM
IC50 [2]: 16 nM
IC50 [3]: 320 nM
IC50 [4]: 500 nM
Ratio IC50 (Homo sapiens [5]): 0.64
Ratio IC50 (Homo sapiens [6]): 13

O=C(Nc1ccc(Oc2cc(O)ncn2)cc1)Nc1cccc(C(F)(F)F)c1
IC50 [1]: 3200 nM
IC50 [2]: 3200 nM
IC50 [3]: 1600 nM
IC50 [4]: > 2000 nM
Ratio IC50 (Homo sapiens [5]): 1
Ratio IC50 (Homo sapiens [6]): 0.5

CNc1cc(Oc2ccc(NC(=O)Nc3cccc(C(F)(F)F)c3)cc2C)ncn1
IC50 [1]: ≤ 10 nM
IC50 [2]: 63 nM
IC50 [3]: 630 nM
IC50 [4]: 160 nM
Ratio IC50 (Homo sapiens [5]): > 6.3
Ratio IC50 (Homo sapiens [6]): > 63

O=C(Nc1ccc(Oc2ccnc3[nH]ccc23)cc1)Nc1cccc(C(F)(F)F)c1
IC50 [1]: 32 nM
IC50 [2]: 3.2 nM
IC50 [3]: 32 nM
IC50 [4]: 320 nM
Ratio IC50 (Homo sapiens [5]): 0.1
Ratio IC50 (Homo sapiens [6]): 1

C[C@@H](O)CNc1cc(Oc2ccc(NC(=O)Nc3cccc(C(F)(F)F)c3)cc2)ncn1
IC50 [1]: 63 nM
IC50 [2]: 200 nM
IC50 [3]: 500 nM
IC50 [4]: 1000 nM
Ratio IC50 (Homo sapiens [5]): 3.2
Ratio IC50 (Homo sapiens [6]): 8

CN(C)c1cc(Oc2ccc(NC(=O)Nc3cccc(C(F)(F)F)c3)cc2)ncn1
IC50 [1]: 2500 nM
IC50 [2]: 2500 nM
IC50 [3]: 2000 nM
IC50 [4]: 1000 nM
Ratio IC50 (Homo sapiens [5]): 1
Ratio IC50 (Homo sapiens [6]): 0.8

CNc1cc(Oc2cc(C)c(NC(=O)Nc3cccc(C(F)(F)F)c3)cc2C)ncn1
IC50 [1]: 32 nM
IC50 [2]: 2000 nM
IC50 [3]: 5000 nM
IC50 [4]: > 2000 nM
Ratio IC50 (Homo sapiens [5]): 63
Ratio IC50 (Homo sapiens [6]): 160

O=C(Nc1ccc(Oc2ccncc2)cc1)Nc1cccc(C(F)(F)F)c1
IC50 [1]: 50 nM
IC50 [2]: 20 nM
IC50 [3]: 200 nM
IC50 [4]: 630 nM
Ratio IC50 (Homo sapiens [5]): 0.4
Ratio IC50 (Homo sapiens [6]): 4

CNc1cc(Oc2ccc(NC(=O)Nc3cccc(C(F)F)c3)cc2)ncn1
IC50 [1]: 100 nM
IC50 [2]: 130 nM
IC50 [3]: 6300 nM
IC50 [4]: > 2000 nM
Ratio IC50 (Homo sapiens [5]): 1.3
Ratio IC50 (Homo sapiens [6]): 62

CNc1cc(Oc2ccc(NC(=O)Nc3cccc(C(F)(F)F)c3)cc2Cl)ncn1
IC50 [1]: 50 nM
IC50 [2]: 50 nM
IC50 [3]: 800 nM
IC50 [4]: 500 nM
Ratio IC50 (Homo sapiens [5]): 1
Ratio IC50 (Homo sapiens [6]): 16

CNc1cc(Oc2ccc(NC(=O)Nc3cccc(C(F)(F)F)c3)c(F)c2F)ncn1
IC50 [1]: 20 nM
IC50 [2]: 2.5 nM
IC50 [3]: 160 nM
IC50 [4]: 16 nM
Ratio IC50 (Homo sapiens [5]): 0.13
Ratio IC50 (Homo sapiens [6]): 8

O=C(Nc1ccc(Oc2ncnc3[nH]ccc23)cc1)Nc1cccc(C(F)(F)F)c1
IC50 [1]: 16 nM
IC50 [2]: 2.5 nM
IC50 [3]: 500 nM
IC50 [4]: 400 nM
Ratio IC50 (Homo sapiens [5]): 0.16
Ratio IC50 (Homo sapiens [6]): 31

CNc1cc(Oc2ccc(NC(=O)Nc3cccc(C(C)F)c3)cc2)ncn1 (stereo not drawn)
IC50 [1]: 79 nM
IC50 [2]: 79 nM
IC50 [3]: 5000 nM
IC50 [4]: 1000 nM
Ratio IC50 (Homo sapiens [5]): 1
Ratio IC50 (Homo sapiens [6]): 63

CNC(=O)c1cc(Oc2ccc(NC(=O)Nc3cccc(C(F)(F)F)c3)cc2)ccn1
IC50 [1]: 79 nM
IC50 [2]: 4 nM
IC50 [3]: 320 nM
Ratio IC50 (Homo sapiens [5]): 0.05
Ratio IC50 (Homo sapiens [6]): 4

O=C(Nc1ccc(Oc2ncnc3ccccc23)cc1)Nc1cccc(C(F)(F)F)c1
IC50 [1]: 800 nM
IC50 [2]: 320 nM
IC50 [3]: 1260 nM
IC50 [4]: 1260 nM
Ratio IC50 (Homo sapiens [5]): 0.4
Ratio IC50 (Homo sapiens [6]): 1.6

CNc1cc(Oc2c(F)cc(NC(=O)Nc3cccc(C(F)(F)F)c3)cc2F)ncn1
IC50 [1]: 20 nM
IC50 [2]: 50 nM
IC50 [3]: 500 nM
IC50 [4]: > 2000 nM
Ratio IC50 (Homo sapiens [5]): 2.5
Ratio IC50 (Homo sapiens [6]): 25

CNc1cc(Oc2c(C)cc(NC(=O)Nc3cccc(C(F)(F)F)c3)c3ccccc23)ncn1
IC50 [1]: 32 nM
IC50 [2]: 160 nM
IC50 [3]: 130 nM
IC50 [4]: > 2000 nM
Ratio IC50 (Homo sapiens [5]): 5
Ratio IC50 (Homo sapiens [6]): 4

CC(=O)Nc1cc(Oc2ccc(NC(=O)Nc3cccc(C(F)(F)F)c3)cc2)ncn1
IC50 [1]: 20 nM
IC50 [2]: 1.3 nM
IC50 [3]: 79 nM
IC50 [4]: 32 nM
Ratio IC50 (Homo sapiens [5]): 0.07
Ratio IC50 (Homo sapiens [6]): 4

O=C(O)Cc1cccc(Nc2cc(Oc3ccc(NC(=O)Nc4cccc(C(F)(F)F)c4)cc3)ncn2)c1
IC50 [1]: 10 nM
IC50 [2]: 0.4 nM
IC50 [3]: 400 nM
IC50 [4]: 630 nM
Ratio IC50 (Homo sapiens [5]): 0.04
Ratio IC50 (Homo sapiens [6]): 40

CCCNc1cc(Oc2ccc(NC(=O)Nc3cccc(C(F)(F)F)c3)cc2)ncn1
IC50 [1]: 32 nM
IC50 [2]: 19 nM
IC50 [3]: 400 nM
IC50 [4]: 630 nM
Ratio IC50 (Homo sapiens [6]): 13

CC(C)Nc1cc(Oc2ccc(NC(=O)Nc3cccc(C(F)(F)F)c3)cc2)ncn1
IC50 [1]: 40 nM
IC50 [2]: 50 nM
IC50 [3]: 400 nM
IC50 [4]: 800 nM
Ratio IC50 (Homo sapiens [5]): 1.3
Ratio IC50 (Homo sapiens [6]): 10

Cc1cc(Oc2ccc(NC(=O)Nc3cccc(C(F)(F)F)c3)cc2)ncn1
IC50 [1]: 160 nM
IC50 [2]: 63 nM
IC50 [3]: 1000 nM
IC50 [4]: 1260 nM
Ratio IC50 (Homo sapiens [5]): 0.4
Ratio IC50 (Homo sapiens [6]): 6.3

CC(C)CNc1cc(Oc2ccc(NC(=O)Nc3cccc(C(F)(F)F)c3)cc2)ncn1
IC50 [1]: 50 nM
IC50 [2]: 320 nM
IC50 [3]: 250 nM
IC50 [4]: 1260 nM
Ratio IC50 (Homo sapiens [5]): 6.4
Ratio IC50 (Homo sapiens [6]): 5

COc1ccc2ncnc(Oc3ccc(NC(=O)Nc4cccc(C(F)(F)F)c4)cc3)c2c1
IC50 [1]: 100 nM
IC50 [2]: 10 nM
IC50 [3]: 1600 nM
IC50 [4]: 400 nM
Ratio IC50 (Homo sapiens [5]): 0.1
Ratio IC50 (Homo sapiens [6]): 16

CCc1cccc(NC(=O)Nc2ccc(Oc3cc(NC)ncn3)cc2)c1
IC50 [1]: 200 nM
IC50 [2]: 130 nM
IC50 [3]: 16000 nM
IC50 [4]: > 2000 nM
Ratio IC50 (Homo sapiens [5]): 0.65
Ratio IC50 (Homo sapiens [6]): 80

O=C(Nc1ccc(Oc2ccnc3ccccc23)cc1)Nc1cccc(C(F)(F)F)c1
IC50 [1]: 63 nM
IC50 [2]: 5 nM
IC50 [3]: 100 nM
IC50 [4]: 200 nM
Ratio IC50 (Homo sapiens [5]): 0.08
Ratio IC50 (Homo sapiens [6]): 1.6

CNc1cc(Oc2ccc(NC(=O)Nc3cccc(C(F)(F)F)c3)c(F)c2)ncn1
IC50 [1]: 63 nM
IC50 [2]: 6.3 nM
IC50 [3]: 400 nM
IC50 [4]: 63 nM
Ratio IC50 (Homo sapiens [5]): 0.1
Ratio IC50 (Homo sapiens [6]): 6.3

COc1cc2ncnc(Oc3ccc(NC(=O)Nc4cccc(C(F)(F)F)c4)cc3)c2cc1OC
IC50 [1]: 23 nM
IC50 [2]: 2 nM
IC50 [3]: 800 nM
IC50 [4]: 63 nM
Ratio IC50 (Homo sapiens [5]): 0.08
Ratio IC50 (Homo sapiens [6]): 32

CNc1cc(Oc2ccc(NC(=O)Nc3cccc(C(F)(F)F)c3)cc2F)ncn1
IC50 [2]: 16 nM
IC50 [3]: 1000 nM
IC50 [4]: 1600 nM
Ratio IC50 (Homo sapiens [5]): 0.64
Ratio IC50 (Homo sapiens [6]): 40

COc1cc(Oc2ccc(NC(=O)Nc3cccc(C(F)(F)F)c3)cc2)ncn1
IC50 [1]: 4000 nM
IC50 [2]: 400 nM
IC50 [3]: 1260 nM
IC50 [4]: > 2000 nM
Ratio IC50 (Homo sapiens [5]): 0.1
Ratio IC50 (Homo sapiens [6]): 0.3

CNc1nccc(Oc2ccc(NC(=O)Nc3cccc(C(F)(F)F)c3)cc2)n1
IC50 [1]: 50 nM
IC50 [2]: 32 nM
IC50 [3]: 50 nM
IC50 [4]: 63 nM
Ratio IC50 (Homo sapiens [5]): 0.64
Ratio IC50 (Homo sapiens [6]): 1

CNc1cc(Oc2ccc(NC(=O)Nc3cccc(C)c3)cc2)ncn1
IC50 [1]: 1260 nM
IC50 [2]: 800 nM
IC50 [3]: > 25000 nM
IC50 [4]: > 2000 nM
Ratio IC50 (Homo sapiens [5]): 0.63
Ratio IC50 (Homo sapiens [6]): > 20

CNc1cc(Oc2ccc(NC(=O)Nc3cccc(CF)c3)cc2)ncn1
IC50 [1]: 400 nM
IC50 [2]: 400 nM
IC50 [3]: 25000 nM
IC50 [4]: > 2000 nM
Ratio IC50 (Homo sapiens [5]): 1
Ratio IC50 (Homo sapiens [6]): 63

CNc1cc(Oc2ccc(NC(=O)Nc3cccc(C(F)(F)F)c3)c3ccccc23)ncn1
IC50 [1]: 25 nM
IC50 [2]: 13 nM
IC50 [3]: 5 nM
IC50 [4]: 100 nM
Ratio IC50 (Homo sapiens [5]): 0.5
Ratio IC50 (Homo sapiens [6]): 0.2

From ChEMBL document CHEMBL4840354, “Identification of Diarylurea Inhibitors of the Cardiac-Specific Kinase TNNI3K by Designing Selectivity Against VEGFR2, p38α, and B-Raf” (J Med Chem, 2021)
